Numbered stars: 1 amine (or outer) side, 2 acyl side, 3 side chain; on linkers, the order of the positions; unused ones are H or OH. Bridge positions count the residues as written; N and C are the ends. Square brackets hold non-standard residues; d marks the D form. Peptide text beside a SMILES is read from it. * marks the point of attachment. Trp(5-F) = N[C@@H](Cc1c[nH]c2ccc(F)cc12)C(=O)O; Nle(6-COOH) = N[C@@H](CCCCC(=O)O)C(=O)O; X1 = O=C(CCSCc1cccc(CSCCN[*:1])c1)[*:2]; mXylylene = c1cc(C[*:1])cc(C[*:2])c1; Asu = N[C@@H](CCCCCC(=O)O)C(=O)O; αMeP = C[C@@]1(C(=O)O)CCCN1; Orn = NCCC[C@H](N)C(=O)O; X2 = COCCOCCOCCOCCC(=O)*; Nva = CCC[C@H](N)C(=O)O; Mpa = O=C(O)CCS
Tests used:
Chymotrypsinogen A = Chymotrypsinogen A (Bos taurus, UniProt P00766); assay: Enzymatic stability assessed as bovine pancreatic alpha-chymotrypsin-mediated compound hydrolysis by measuring parent compound remaining at 100 uM incubated for 1 hr by LC-MS/MS analysis; type: ADME; conditions: cattle, read-out: Stabilty
[1] = target: Chymotrypsin-like elastase family member 1 (Sus scrofa, UniProt P00772); assay: Enzymatic stability assessed as porcine type 4 pancreatic elastase-mediated compound hydrolysis by measuring parent compound remaining at 100 uM incubated for 1 hr by LC-MS/MS analysis; type: ADME; conditions: pig, read-out: Stabilty
[2] = Enzymatic stability assessed as porcine pepsin-mediated compound hydrolysis by measuring parent compound remaining at 100 uM incubated for 1 hr by LC-MS/MS analysis; type: ADME, Sus scrofa; conditions: pig, read-out: Stabilty
[3] = Enzymatic stability assessed as bovine pancreatic trypsin-mediated compound hydrolysis by measuring parent compound remaining at 100 uM incubated for 1 hr by LC-MS/MS analysis; type: ADME, Bos taurus; conditions: cattle, read-out: Stabilty
[4] = Half life in C57BL/6 mouse whole blood at 100 uM by LC-MS/MS analysis; type: ADME, tissue-based
[5] = target: Proprotein convertase subtilisin/kexin type 9 (Homo sapiens, UniProt Q8NBP7); assay: Inhibition of AlexaFluor647-tagged cyclic peptide binding to avi-tagged-biotinylated human PCSK9 measured after 2 hrs by Lance Streptavidin Europium based FRET assay
[6] = Induction of mast cell degranulation in Wistar rat isolated peritoneal cells assessed as effect on histamine release measured after 30 mins; type: tissue-based
[7] = Cytotoxicity against Wistar rat isolated peritoneal cells assessed as reduction in cell viability up to 60 uM measured after 30 mins; type: cell-based; conditions: peritoneal macrophage cell, 0.5 h
[8] = Half life in cynomolgus monkey whole blood at 100 uM by LC-MS/MS analysis; type: ADME, tissue-based, Macaca fascicularis
PCSK9/LDLR = PCSK9/LDLR (Homo sapiens, UniProt Q8NBP7); assay: Inhibition of avi-tagged-biotinylated human PCSK9 interaction with His-tagged human LDLR EGFa domain by LANCE Ulight Streptavidin based TR-FRET assay; type: protein assay
Chain of PCSK9/LDLR (Q8NBP7 31-152 limits assumed): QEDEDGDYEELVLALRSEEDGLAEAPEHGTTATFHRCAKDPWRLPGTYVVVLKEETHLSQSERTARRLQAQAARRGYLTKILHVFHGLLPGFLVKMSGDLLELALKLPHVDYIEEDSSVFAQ
Chain of PCSK9/LDLR (Q8NBP7 153-692 limits assumed): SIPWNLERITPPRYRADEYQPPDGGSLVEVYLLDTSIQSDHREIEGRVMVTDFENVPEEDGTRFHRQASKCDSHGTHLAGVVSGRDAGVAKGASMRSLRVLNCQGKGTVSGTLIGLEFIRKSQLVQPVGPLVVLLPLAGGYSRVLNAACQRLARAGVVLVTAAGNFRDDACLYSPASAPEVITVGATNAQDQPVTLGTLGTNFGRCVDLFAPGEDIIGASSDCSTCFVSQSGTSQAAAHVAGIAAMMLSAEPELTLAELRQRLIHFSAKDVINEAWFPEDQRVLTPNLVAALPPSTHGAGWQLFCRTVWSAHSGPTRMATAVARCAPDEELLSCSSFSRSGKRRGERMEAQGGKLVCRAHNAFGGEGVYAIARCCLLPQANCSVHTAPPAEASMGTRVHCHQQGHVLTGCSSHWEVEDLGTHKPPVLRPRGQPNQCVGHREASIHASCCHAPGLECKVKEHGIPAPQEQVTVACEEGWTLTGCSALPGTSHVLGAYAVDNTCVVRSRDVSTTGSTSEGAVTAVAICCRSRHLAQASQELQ
Chain of PCSK9/LDLR (P01130 22-860 partner limits assumed): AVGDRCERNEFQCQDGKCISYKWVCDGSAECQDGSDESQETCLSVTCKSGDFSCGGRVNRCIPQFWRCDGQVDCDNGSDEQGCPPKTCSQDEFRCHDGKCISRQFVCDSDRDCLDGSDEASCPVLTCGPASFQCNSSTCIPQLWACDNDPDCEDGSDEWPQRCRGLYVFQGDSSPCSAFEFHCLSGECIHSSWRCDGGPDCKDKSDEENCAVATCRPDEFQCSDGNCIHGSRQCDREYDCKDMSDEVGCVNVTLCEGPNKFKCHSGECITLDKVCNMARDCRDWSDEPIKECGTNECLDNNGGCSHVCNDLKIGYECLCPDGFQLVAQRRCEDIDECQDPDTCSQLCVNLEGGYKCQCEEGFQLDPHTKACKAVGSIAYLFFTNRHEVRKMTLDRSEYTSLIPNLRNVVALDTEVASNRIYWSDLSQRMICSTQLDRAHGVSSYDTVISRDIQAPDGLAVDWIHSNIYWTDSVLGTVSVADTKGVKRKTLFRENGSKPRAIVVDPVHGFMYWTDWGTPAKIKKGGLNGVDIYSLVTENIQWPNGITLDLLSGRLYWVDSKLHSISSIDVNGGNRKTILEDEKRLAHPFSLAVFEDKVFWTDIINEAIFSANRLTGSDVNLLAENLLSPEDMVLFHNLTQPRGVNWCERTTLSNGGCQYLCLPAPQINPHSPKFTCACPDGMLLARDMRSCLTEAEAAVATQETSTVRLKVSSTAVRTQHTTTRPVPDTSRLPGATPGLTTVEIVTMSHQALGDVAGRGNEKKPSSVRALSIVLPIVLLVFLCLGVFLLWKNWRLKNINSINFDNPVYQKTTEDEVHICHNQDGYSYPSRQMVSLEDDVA

Chain of Proprotein convertase subtilisin/kexin type 9 (Q8NBP7 31-152 limits assumed): as the sequence (Q8NBP7 31-152 limits assumed) above
Chain of Proprotein convertase subtilisin/kexin type 9 (Q8NBP7 153-692 limits assumed): as the sequence (Q8NBP7 153-692 limits assumed) above
Chain of Chymotrypsin-like elastase family member 1 (P00772 whole entry): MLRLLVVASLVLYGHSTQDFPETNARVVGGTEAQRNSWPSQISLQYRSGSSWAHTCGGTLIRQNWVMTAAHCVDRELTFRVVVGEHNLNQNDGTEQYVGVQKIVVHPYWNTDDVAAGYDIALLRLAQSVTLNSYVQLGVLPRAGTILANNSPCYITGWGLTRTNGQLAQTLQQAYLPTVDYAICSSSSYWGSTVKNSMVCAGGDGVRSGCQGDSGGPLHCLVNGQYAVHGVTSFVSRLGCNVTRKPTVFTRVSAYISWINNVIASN

remaining at 1 h, 100 µM (Chymotrypsinogen A)	remaining at 1 h, 100 µM [1]	remaining at 1 h, 100 µM [2]	remaining at 1 h, 100 µM [3]	half-life at 100 µM [4]	Ki [5]	half-life at 100 µM [8]	Ki (PCSK9/LDLR)	EC50 ([6]; Rattus norvegicus, Wistar, Mast cell, 0.5 h, read-out: EC50)	SMILES	EC50 ([6]; mast cell)	Activity [7]
39.5%	96.3%	98.6%	96%	> 6 h	9.4 nM				COCCOCCOCCOCCC(=O)NCCCC[C@@H]1NC(=O)CCSCc2cccc(c2)CSC[C@@H](C(N)=O)NC(=O)[C@]2(C)CCCN2C(=O)[C@H](Cc2ccc(O)cc2)NC(=O)[C@H](Cc2cnc[nH]2)NC(=O)[C@H](CC(=O)O)NC(=O)[C@H](Cc2c[nH]c3ccc(F)cc23)NC(=O)[C@H](Cc2c[nH]c3ccc(F)cc23)NC(=O)CNC1=O ([Mpa]K(X2)G[Trp(5-F)][Trp(5-F)]DHY[αMeP]C-NH2; linker 1-10 via mXylylene)	Non-Toxic	Non-Toxic
91%	56%	99.5%	1.2%	1.03 h	10.1 nM	3.1 h			CO[C@H](C)[C@@H]1NC(=O)[C@@H]2CCCN2C(=O)[C@H](Cc2c[nH]c3ccc(F)cc23)NC(=O)[C@H](Cc2c[nH]c3ccc(F)cc23)NC(=O)CNC(=O)[C@H](CCCCN)NC(=O)CCSCc2cccc(c2)CSC[C@@H](C(N)=O)NC(=O)[C@]2(C)CCCN2C(=O)[C@H](Cc2ccc(O)cc2)NC1=O ([Mpa]KG[Trp(5-F)][Trp(5-F)]PT(Me)Y[αMeP]C-NH2; linker 1-10 via mXylylene)		
91%	51%	95%	1.9%	> 6 h	11.7 nM		23.9 nM		C[C@@H](O)[C@@H]1NC(=O)[C@@H]2CCCN2C(=O)[C@H](Cc2c[nH]c3ccc(F)cc23)NC(=O)[C@H](Cc2c[nH]c3ccc(F)cc23)NC(=O)CNC(=O)[C@H](CCCCN)NC(=O)CCSCc2cccc(c2)CSC[C@@H](C(N)=O)NC(=O)[C@]2(C)CCCN2C(=O)[C@H](Cc2ccc(O)cc2)NC1=O ([Mpa]KG[Trp(5-F)][Trp(5-F)]PTY[αMeP]C-NH2; linker 1-10 via mXylylene)		
					35.2 nM		94.7 nM	7000 nM	CCC[C@@H]1NC(=O)CCSCc2cccc(c2)CSC[C@@H](C(N)=O)NC(=O)[C@]2(C)CCCN2C(=O)[C@H](Cc2ccc(O)cc2)NC(=O)[C@H](Cc2cnc[nH]2)NC(=O)[C@H](CC(=O)O)NC(=O)[C@H](Cc2c[nH]c3ccc(F)cc23)NC(=O)[C@H](Cc2c[nH]c3ccc(F)cc23)NC(=O)CNC1=O ([Mpa][Nva]G[Trp(5-F)][Trp(5-F)]DHY[αMeP]C-NH2; linker 1-10 via mXylylene)		Non-Toxic
					14.3 nM		132 nM		C[C@@]12CCCN1C(=O)[C@H](Cc1ccc(O)cc1)NC(=O)[C@H](Cc1cnc[nH]1)NC(=O)[C@H](CC(=O)O)NC(=O)[C@H](Cc1c[nH]c3ccc(F)cc13)NC(=O)[C@H](Cc1c[nH]c3ccc(F)cc13)NC(=O)CNC(=O)[C@H](CCCN)NC(=O)CCSCc1cccc(c1)CSC[C@@H](C(N)=O)NC2=O ([Mpa][Orn]G[Trp(5-F)][Trp(5-F)]DHY[αMeP]C-NH2; linker 1-10 via mXylylene)	Non-Toxic	Non-Toxic
7.4%	46.1%	99.1%	0.8%	5.56 h	4.3 nM		26.6 nM		C[C@@]12CCCN1C(=O)[C@H](Cc1ccc(O)cc1)NC(=O)[C@H](Cc1cnc[nH]1)NC(=O)[C@H](CC(=O)O)NC(=O)[C@H](Cc1c[nH]c3ccc(F)cc13)NC(=O)[C@H](Cc1c[nH]c3ccc(F)cc13)NC(=O)CNC(=O)[C@H](CCCCN)NC(=O)CCSCc1cccc(c1)CSCCNC2=O (cyclo(DHY[αMeP][X1]KG[Trp(5-F)][Trp(5-F)]))		

SMILES	remaining at 1 h, 100 µM (Chymotrypsinogen A)	remaining at 1 h, 100 µM [1]	remaining at 1 h, 100 µM [2]	remaining at 1 h, 100 µM [3]	half-life at 100 µM [4]	Ki [5]	half-life at 100 µM [8]	Ki (PCSK9/LDLR)	EC50 ([6]; Rattus norvegicus, Wistar, Mast cell, 0.5 h, read-out: EC50)	EC50 ([6]; mast cell)	Activity [7]
COc1ccc(C[C@@H]2NC(=O)[C@H](Cc3cnc[nH]3)NC(=O)[C@H](CC(=O)O)NC(=O)[C@H](Cc3c[nH]c4ccc(F)cc34)NC(=O)[C@H](Cc3c[nH]c4ccc(F)cc34)NC(=O)[C@@H](C)NC(=O)[C@H](CCCCC(=O)O)NC(=O)CCSCc3cccc(c3)CSCCNC(=O)[C@]3(C)CCCN3C2=O)cc1 (cyclo(DHY(Me)[αMeP][X1][Nle(6-COOH)][dA][Trp(5-F)][Trp(5-F)]))						85.8 nM				Non-Toxic	Non-Toxic
COc1ccc(C[C@@H]2NC(=O)[C@H](Cc3cnc[nH]3)NC(=O)[C@H](CC(=O)O)NC(=O)[C@H](Cc3c[nH]c4ccc(F)cc34)NC(=O)[C@H](Cc3c[nH]c4ccc(F)cc34)NC(=O)[C@@H](C)NC(=O)[C@H](CCCCCC(=O)O)NC(=O)CCSCc3cccc(c3)CSCCNC(=O)[C@]3(C)CCCN3C2=O)cc1 (cyclo([Asu][dA][Trp(5-F)][Trp(5-F)]DHY(Me)[αMeP][X1]))						80.7 nM				Non-Toxic	Non-Toxic

From ChEMBL document CHEMBL4699634, “Series of Novel and Highly Potent Cyclic Peptide PCSK9 Inhibitors Derived from an mRNA Display Screen and Optimized via Structure-Based Design” (J Med Chem, 2020)
